Experimental data taken from patent US20080318992A1, “METHOD OF USING A PKC INHIBITOR TO REVERSE PREFRONTAL CORTICAL DECLINES” (YALE UNIVERSITY, priority 2007, published 2008).
Where two headings read alike, the source gives them in different places.

Legend:
aged rhesus monkeys = assay: Spatial delayed response task (working memory) in aged rhesus monkeys; type: in vivo, rhesus monkeys (Macaca mulatta); details: for delayed response performance: 1 h prior to testing
Text: Performance on this task is reliant upon the integrity of the dorsolateral prefrontal cortex (Goldman-Rakic, 1987) and is consistently impaired in aged rhesus monkey (Bartus, et al., 1978; Rapp and Amaral, 1989).
The present study used 13 aged female rhesus monkeys (Macaca mulatta) ranging in age from 18 to 35 years at the time of testing. Actual birthdates were not available for several of the wild-caught animals and ages were estimated based on health records, teeth, and known history; several had been in the Yale University colony for more than 15 years. Monkeys were individually housed and maintained on a diet of Purina monkey chow (St. Louis, Mo.) supplemented with fruit.
Animals were tested at the same time of day immediately prior to feeding. Highly palatable food rewards (e.g., peanuts, raisins, or chocolate chips) were utilized during testing to minimize the need for dietary regulation. Animals were tested twice a week with 3-4 days separating each test session (e.g., Monday and Thursday). Cognitive testing of monkeys occurred in a Wisconsin General Testing Apparatus (WGTA) situated in a sound-attenuating room. Background masking noise (60 dB, wideband) was used to minimize auditory distractions.
The monkeys were trained on the spatial delayed response task as described previously (Arnsten, A. F., et al., J. Neurosci. (1988) δ: 4287-4298). For the delayed response task, the animal watched as the experimenter baited one of several food-wells with a food reward. The number of food-wells varied from two to four wells, depending on the monkey's performance level and experience with the task. Care was taken by the experimenter to ensure that the animal attended the baiting procedure. After baiting, food-wells were covered with identical plaques, and an opaque screen was lowered between the animal and the food-wells for a specified delay. At the end of the delay, the screen was raised and the animal was allowed to choose. Reward was quasi-randomly distributed between the wells. Five delay lengths (referred to as delays A through E) were quasi-randomly distributed over 30 trials. The shortest of these delays was ˜2 s (the “0” s, A delay). The remaining delays were titrated for individual monkeys such that each monkey maintained a baseline performance of 60-73% correct. For example, the delays for one animal might be A=0, B=5, C=10, D=15, and E=20 s.
Data were analyzed by comparing performance following treatment using a one-way repeated-measures ANOVA. […] Values were represented as means±SEM. Linear relationships between treatment response at the optimal dose of CHEL and age of the monkey (years) were analyzed in 10 monkeys with known birthdates using Pearson's test. In all cases, an α level of 0.05 was considered statistically significant.
All animals received all treatments conditions, with at least 7 days between treatments. The order of treatment administration was quasi-randomized.

[1] = systemic administration; cited from earlier work
[2] = tested on: rat medial prefrontal cortex; details: systemic administration and infusions directly to the rat medial prefrontal cortex via implanted cannula; cited from earlier work
aged rats = details: for change in percent-correct from mean 2-day baseline: 45 min prior to testing, N=5 aged rats

## COc1ccc2c(c[n+](C)c3c4cc5c(cc4ccc23)OCO5)c1OC [CHEL, Chelerythrine]
Aged rhesus monkeys; 0.3 μg/kg oral
  performance of 3 oldest monkeys better than 3 youngest monkeys: > 20%
Aged rhesus monkeys; 0.3 μg/kg oral, N=13 aged monkeys, p=0.013 vs vehicle
  delayed response performance: 74.5±2.6 % correct
Aged rhesus monkeys; 0.3 ug/kg oral, 4 hrs after administration, p=0.012 compared to vehicle (FIG. 5)
  spatial working memory performance 4 hours after oral administration: improved performance
Aged rhesus monkeys; 0.3 μg/kg oral, 3 oldest monkeys, mean age 32.3 years
  performance of the 3 oldest monkeys: 85.6±4.4 % correct
Aged rhesus monkeys; 0.3 μg/kg oral, 3 youngest aged monkeys, mean age 20.7 years
  performance of the 3 youngest aged monkeys: 65.0±4.8 % correct
Aged rhesus monkeys; 3.0 μg/kg oral, N=13, p=0.151 vs vehicle
  delayed response performance: 71.5±1.9 % correct
Aged rhesus monkeys; 30.0 μg/kg oral, N=13, p=0.406 vs vehicle
  delayed response performance: 66.1±1.8%
Aged rhesus monkeys; individual best dose for all monkeys, oral, 4 hours, p=0.001 (FIG. 5)
  spatial working memory performance at best dose: reliably improved performance
Aged rhesus monkeys; oral, even at high doses (150 ug/kg), 4 hours (FIG. 5)
  serious deficits at high doses: no serious deficits were found
[1]
  working memory impairments following administration of cirazoline: reverse working memory impairments
[2]
  stress induced working memory impairments: capable of reversing stress induced working memory impairments
Aged rats; 0.3 mg/kg subcutaneous, p=0.691 vs vehicle
  change in percent-correct from mean 2-day baseline: 8.6±5.4 % improvement
Aged rats; 1.0 mg/kg subcutaneous, p=0.047 vs vehicle
  change in percent-correct from mean 2-day baseline: 26±6.4 % improvement
Aged rats; 0.3 or 1.0 mg/kg subcutaneous, data not shown
  performance times (non-specific motor effects): performance times did not differ as a result of treatment
